# Reference: PMC8915595, “Revisiting the application of Immobilized Artificial Membrane (IAM) chromatography to estimate in vivo distribution properties of drug discovery compounds based on the model of marketed drugs” (ADMET & DMPK, 2020)
# Legend:
# [1] = IAM chromatography on new IAM.PC.DD2 columns (gradient HPLC, CHI (IAM)); assay type: physicochemical; parameters: key to CHI (IAM) “new” / P20511-014-3 CHI (IAM): CHI (IAM) from retention times calibrated to predefined CHI standards; conditions: for log K (IAM): constant values of the calibration set, CHI IAM converted to octanol/water lipophilicity scale by equation 7; for P20511-014-3 CHI (IAM): new IAM.PC.DD2 column batch P20511-014-3, pH 7.4; for R20511-014-3 CHI (IAM): new IAM.PC.DD2 column batch R20511-014-3, pH 7.4
# Method: The IAM binding was measured using IAM.PC.DD2 HPLC columns (Regis Technologies, Inc., IL, USA) with dimensions of 100 x 4.6 mm, particle size 10 μm with 300 Å pore size.
# Two batches of IAM.PC.DD2 columns were studied (R20511-014-3 and P20511-014-3) that had been prepared using the new batches of silica support.
# The retention times were standardized using the IAM calibration mixture, containing octanophenone, heptanophenone, hexanophenone, valerophenone, butyrophenone, propiophenone, acetophenone, acetanilide and paracetamol. The retention times of the compounds were plotted against the isocratically determined and predefined CHI (IAM) values listed in Table 1. The slope and intercept of the obtained straight line was used to calculate the CHI IAM values of new compounds.
# [2] = human
# [3] = target: T1, human serum albumin (HSA) (Homo sapiens, UniProt P02768); experiment: Protein binding on chemically bonded HSA column (Chiralpak-HSA); conditions: remeasured in this study, pH 7.4
# T1 sequence (P02768 25-609): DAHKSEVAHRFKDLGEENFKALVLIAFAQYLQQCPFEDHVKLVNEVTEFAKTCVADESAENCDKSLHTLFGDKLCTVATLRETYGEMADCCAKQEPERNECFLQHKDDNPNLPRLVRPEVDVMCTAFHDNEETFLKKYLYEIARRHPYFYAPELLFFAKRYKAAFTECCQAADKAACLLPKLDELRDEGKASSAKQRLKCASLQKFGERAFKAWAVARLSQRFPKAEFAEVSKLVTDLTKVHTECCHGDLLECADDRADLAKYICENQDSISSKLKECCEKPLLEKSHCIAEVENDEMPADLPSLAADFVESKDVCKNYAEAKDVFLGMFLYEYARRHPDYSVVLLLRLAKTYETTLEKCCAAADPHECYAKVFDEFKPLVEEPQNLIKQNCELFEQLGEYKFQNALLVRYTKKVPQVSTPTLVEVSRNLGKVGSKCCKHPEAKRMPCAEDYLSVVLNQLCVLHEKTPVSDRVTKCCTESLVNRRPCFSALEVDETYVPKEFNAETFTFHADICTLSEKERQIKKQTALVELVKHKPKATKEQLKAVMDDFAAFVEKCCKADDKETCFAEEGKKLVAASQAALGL
# Method: Mobile phase A was 50 mM ammonium acetate adjusted to pH 7.4 and mobile phase B was 2-propanol. The flow rate was 1.5 mL/min and the run time was 6 min. The 2-propanol gradient was applied from 0 to 35% from 0 to 3.00 min and kept at 35% until 4.00 min.
# [4] = reference CHI (IAM), old columns; cited from earlier work
# [5] = target: T1, human serum albumin (HSA); conditions: cited from earlier work
# [6] = parameters: method as in earlier work; conditions: constant, isocratically determined and predefined values of the calibration set; cited from earlier work
Compound,log K (IAM) [1],P20511-014-3 CHI (IAM) [1],R20511-014-3 CHI (IAM) [1],reference log Vdss [2],log K HSA [3],CHI (IAM) from ref [13] [4],log K HSA from ref [13] [5],CHI (IAM) [6]
CC(=O)Nc1ccccc1 [Acetanilide],1.45,11.50,11.55,-0.13,0.43,10.70,0.62,11.5
CC(=O)c1ccccc1 [Acetophenone],1.67,,,,,,,17.2
CCCC(=O)c1ccccc1 [Butyrophenone],2.62,,,,,,,32.0
CCCCCCC(=O)c1ccccc1 [Heptanophenone],4.30,,,,,,,45.7
CCCCCC(=O)c1ccccc1 [Hexanophenone],3.71,,,,,,,41.8
CCCCCCCC(=O)c1ccccc1 [Octanophenone],4.97,,,,,,,49.4
CC(=O)Nc1ccc(O)cc1 [Paracetamol],1.20,,,,,,,2.90
CCC(=O)c1ccccc1 [Propiophenone],2.15,,,,,,,25.9
Cc1c(Cl)cccc1Nc1ccccc1C(=O)O [Tolfenamic Acid],,41.53,40.72,-0.76,6.60,36.60,2.46,
CCCCC(=O)c1ccccc1 [Valerophenone],3.16,,,,,,,37.3
